Experimental data: patent US20230091336A1, “CANNABINOID COMPOSITIONS” (priority 2020, published 2023)

Assays:
UUO mice = settings: background statement; cited from earlier work
kidney cell-line model = settings: background statement; cited from earlier work
[1] = system: thapsigargin (Tg)-induced Ca^2+ entry (SOCE) in Jurkat, U937, Luva, RBL-2H3, HL-60 and HEK-293 cells; assay: Thapsigargin-induced SOCE Fura-2 bioassay in various cell types (FIG. 1); type: cell-based; settings: 1 μM, positive control, all tested cell types
Procedure: A Fura-2 calcium flux assay was used to determine cytoplasmic Ca^2+ levels. Briefly, cells were preloaded with Fura-2 AM, and fluorescence intensity in cells intensity was measured over time as a ratio of detected 510 nm fluorescent light emission intensity when excited by UV light at 340 nm and 380 nm wavelengths (f340/f380 ratio). Gadolinium (Gd^3+) is known to block SOCE at a concentration of 1 μM and was used at 1 μM as a positive control in these experiments (gray line).

c1ccc2c(c1)CCC[C@H]2Nc1nc2ccccc2[nH]1 [NS8593]
progression of kidney damage and fibrosis in the UUO mouse model (UUO mice): ameliorates the progression of kidney damage and fibrosis
cell proliferation in a kidney cell-line model (kidney cell-line model): inhibit cell proliferation

[Cl][Gd]([Cl])[Cl] [Gd^3+, Gadolinium Chloride]
effect on Tg-induced SOCE (f340/f380 ratio) [1]: inhibited SOCE
